Test results published in ChEMBL document CHEMBL1201862, “PubChem BioAssay data set” (2004).
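These data come from cells grown in 96-well plates and exposed to compound for 48 hours at five concentrations. Here, GI50 denotes the concentration required for 50% inhibition of growth.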 Calls of active or inactive are those of the source. Cut-off read from the data, not from the text of the source: active = GI50 up to about 1.1 µM and inactive = higher.

Legend:
Assay in all cases: NCI anticancer screen, dose series, 48 h
[1] = test system: PC-3
[2] = test system: NCI-H522
[3] = test system: SN12C
[4] = test system: NCI-H460
[5] = test system: OVCAR-4
[6] = test system: MOLT-4
[7] = test system: SF-295
[8] = test system: SF-268
[9] = test system: NCI/ADR-RES
[10] = test system: MCF7
[11] = test system: KM12
[12] = test system: NCI-H226
[13] = test system: EKVX
[14] = test system: A549
[15] = test system: BT-549
[16] = test system: MDA-MB-231
[17] = test system: K562
[18] = test system: UO-31
[19] = test system: OVCAR-5
[20] = test system: SK-MEL-5
[21] = test system: SNB-75
[22] = test system: Malme-3M
[23] = test system: CAKI-1
[24] = test system: SK-MEL-28
[25] = test system: DU-145
[26] = test system: SF-539
[27] = test system: ACHN
[28] = test system: UACC-62
[29] = test system: HOP-62
[30] = test system: MDA-N
[31] = test system: HCT-116
[32] = test system: M14
[33] = test system: RPMI-8226
[34] = test system: HOP-92
[35] = test system: RXF 393
[36] = test system: NCI-H23
[37] = test system: TK-10
[38] = test system: SK-MEL-2
[39] = test system: HCC 2998
[40] = test system: SW-620
[41] = test system: A498
[42] = test system: COLO 205
[43] = test system: U-251
[44] = test system: OVCAR-3
[45] = test system: 786-0
[46] = test system: OVCAR-8
[47] = test system: UACC-257
[48] = test system: T47D
[49] = test system: CCRF-CEM
[50] = test system: HCT-15
[51] = test system: HT-29
[52] = test system: SNB-19
[53] = test system: HL-60
[54] = test system: MDA-MB-435
[55] = test system: SR
[56] = test system: SK-OV-3
[57] = test system: IGROV-1
[58] = test system: LOX IMVI

In the case of C=C1[C@H]2O[C@H]2[C@@H](OC(C)=O)[C@@]2(C)[C@@H](OC(C)=O)C[C@@H](OC(=O)CCC)[C@@](C)(O)[C@@H]2[C@@H](OC(C)=O)[C@]2(O)[C@@H](C)C(=O)O[C@H]2[C@H]1Cl, the GI50 [1] is reported as > 100 µM (inactive), the GI50 [2] is reported as > 100 µM (inactive) and the GI50 [3] is reported as > 100 µM (inactive). For the same molecule, the GI50 [4] was > 100 µM (inactive), the GI50 [5] was > 100 µM (inactive) and the GI50 [6] was > 100 µM (inactive). The GI50 [7] was > 100 µM (inactive), the GI50 [8] was > 100 µM (inactive) and the GI50 [9] was > 100 µM (inactive). The GI50 [10] was > 100 µM (inactive), the GI50 [11] was > 100 µM (inactive) and the GI50 [12] was 0.159 µM (active). For the same molecule, the GI50 [13] was > 100 µM (inactive), the GI50 [14] was > 100 µM (inactive) and the GI50 [15] was > 100 µM (inactive). For the same molecule, the GI50 [16] was > 100 µM (inactive), the GI50 [17] was > 100 µM (inactive) and the GI50 [18] was > 100 µM (inactive). The GI50 [19] was > 100 µM (inactive), the GI50 [20] was > 100 µM (inactive) and the GI50 [21] was > 100 µM (inactive). For the same molecule, the GI50 [22] was > 100 µM (inactive), the GI50 [23] was > 100 µM (inactive) and the GI50 [24] was > 100 µM (inactive). For the same molecule, the GI50 [25] was > 100 µM (inactive), the GI50 [26] was > 100 µM (inactive) and the GI50 [27] was > 100 µM (inactive). The GI50 [28] was > 100 µM (inactive), the GI50 [29] was > 100 µM (inactive) and the GI50 [30] was > 100 µM (inactive). For the same molecule, the GI50 [31] was > 100 µM (inactive), the GI50 [32] was > 100 µM (inactive) and the GI50 [33] was > 100 µM (inactive). The GI50 [34] was > 100 µM (inactive), the GI50 [35] was 38.7 µM (inactive) and the GI50 [36] was > 100 µM (inactive). The GI50 [37] was 0.959 µM (active), the GI50 [38] was > 100 µM (inactive) and the GI50 [39] was > 100 µM (inactive). For the same molecule, the GI50 [40] was > 100 µM (inactive), the GI50 [41] was > 100 µM (inactive) and the GI50 [42] was > 100 µM (inactive). The GI50 [43] was > 100 µM (inactive), the GI50 [44] was > 100 µM (inactive) and the GI50 [45] was > 100 µM (inactive). The GI50 [46] was > 100 µM (inactive), the GI50 [47] was > 100 µM (inactive) and the GI50 [48] was > 100 µM (inactive). For the same molecule, the GI50 [49] was > 10 µM (inactive), the GI50 [50] was > 100 µM and the GI50 [51] was > 100 µM (inactive). The GI50 [52] was > 100 µM (inactive), the GI50 [53] was > 100 µM (inactive) and the GI50 [54] was > 100 µM (inactive).
For Nc1nc(Cl)cc(NC23CC4CC(CC(C4)C2)C3)n1, the GI50 [1] was 29.2 µM (inactive), the GI50 [2] was 31 µM (inactive) and the GI50 [3] was > 100 µM (inactive). For the same molecule, the GI50 [4] was > 100 µM (inactive), the GI50 [55] was > 100 µM (inactive) and the GI50 [5] was > 100 µM (inactive). The GI50 [6] was > 100 µM (inactive), the GI50 [56] was > 100 µM (inactive) and the GI50 [7] was 85.5 µM (inactive). The GI50 [8] was 47.1 µM (inactive), the GI50 [9] was 42.9 µM (inactive) and the GI50 [10] was 85.9 µM (inactive). The GI50 [11] was > 100 µM (inactive), the GI50 [12] was 76.2 µM (inactive) and the GI50 [13] was > 100 µM (inactive). For the same molecule, the GI50 [14] was 98.6 µM (inactive), the GI50 [15] was 61.7 µM (inactive) and the GI50 [16] was 94.6 µM (inactive). For the same molecule, the GI50 [17] was > 100 µM (inactive), the GI50 [18] was > 100 µM (inactive) and the GI50 [19] was > 100 µM (inactive). The GI50 [21] was 26.2 µM (inactive), the GI50 [22] was 44.1 µM (inactive) and the GI50 [23] was > 100 µM (inactive). For the same molecule, the GI50 [24] was > 100 µM (inactive), the GI50 [25] was > 100 µM (inactive) and the GI50 [26] was 47.9 µM (inactive). For the same molecule, the GI50 [27] was > 100 µM (inactive), the GI50 [28] was > 100 µM (inactive) and the GI50 [29] was > 100 µM (inactive). The GI50 [30] was > 100 µM (inactive), the GI50 [57] was 57.3 µM (inactive) and the GI50 [31] was 78.2 µM (inactive). For the same molecule, the GI50 [32] was > 100 µM (inactive), the GI50 [33] was > 100 µM (inactive) and the GI50 [34] was > 100 µM (inactive). The GI50 [35] was > 100 µM (inactive), the GI50 [36] was 34 µM (inactive) and the GI50 [38] was 19.4 µM (inactive). The GI50 [39] was > 100 µM (inactive), the GI50 [40] was > 100 µM (inactive) and the GI50 [41] was > 100 µM (inactive). The GI50 [42] was 81.8 µM (inactive), the GI50 [43] was 32 µM (inactive) and the GI50 [44] was > 100 µM (inactive). The GI50 [45] was > 100 µM (inactive), the GI50 [46] was 90.6 µM (inactive) and the GI50 [47] was > 100 µM (inactive). For the same molecule, the GI50 [48] was > 100 µM (inactive), the GI50 [49] was > 100 µM (inactive) and the GI50 [50] was 40.6 µM. For the same molecule, the GI50 [52] was > 100 µM (inactive) and the GI50 [54] was > 100 µM (inactive).
For S=C(NN=C1NCCCCN1)Nc1ccccc1, the GI50 [1] was 45.7 µM (inactive), the GI50 [2] was 21.2 µM (inactive) and the GI50 [3] was > 100 µM (inactive). The GI50 [4] was 37.2 µM (inactive), the GI50 [55] was 13.1 µM (inactive) and the GI50 [6] was 25.5 µM (inactive). For the same molecule, the GI50 [56] was 79.8 µM (inactive), the GI50 [7] was 31.5 µM (inactive) and the GI50 [8] was 87.3 µM (inactive). For the same molecule, the GI50 [9] was > 100 µM (inactive), the GI50 [10] was 31.2 µM (inactive) and the GI50 [11] was 37.2 µM (inactive). For the same molecule, the GI50 [12] was > 100 µM (inactive), the GI50 [13] was 66.4 µM (inactive) and the GI50 [14] was 34.8 µM (inactive). The GI50 [15] was 64.9 µM (inactive), the GI50 [16] was > 100 µM (inactive) and the GI50 [17] was 31.6 µM (inactive). For the same molecule, the GI50 [18] was 34 µM (inactive), the GI50 [19] was > 100 µM (inactive) and the GI50 [20] was 48.8 µM (inactive). For the same molecule, the GI50 [21] was 80.9 µM (inactive), the GI50 [22] was > 100 µM (inactive) and the GI50 [23] was > 100 µM (inactive). The GI50 [24] was 35.5 µM (inactive), the GI50 [25] was > 100 µM (inactive) and the GI50 [26] was > 100 µM (inactive). For the same molecule, the GI50 [27] was 28.9 µM (inactive), the GI50 [28] was > 100 µM (inactive) and the GI50 [58] was 26.6 µM (inactive). For the same molecule, the GI50 [29] was 68.9 µM (inactive), the GI50 [30] was 98.4 µM (inactive) and the GI50 [57] was 43.4 µM (inactive). For the same molecule, the GI50 [31] was 24.5 µM (inactive), the GI50 [32] was 31.7 µM (inactive) and the GI50 [33] was 9.93 µM (inactive). For the same molecule, the GI50 [36] was > 100 µM (inactive), the GI50 [39] was > 100 µM (inactive) and the GI50 [41] was > 100 µM (inactive). For the same molecule, the GI50 [42] was 6.68 µM (inactive), the GI50 [43] was 36.3 µM (inactive) and the GI50 [44] was 40.4 µM (inactive). The GI50 [45] was 39 µM (inactive), the GI50 [46] was 36 µM (inactive) and the GI50 [47] was 36 µM (inactive). The GI50 [48] was > 100 µM (inactive), the GI50 [49] was 19.8 µM (inactive) and the GI50 [50] was 37.4 µM. The GI50 [51] was 23 µM (inactive), the GI50 [52] was > 100 µM (inactive) and the GI50 [53] was 14.6 µM (inactive). For the same molecule, the GI50 [54] was 39.7 µM (inactive).
